Test results taken from patent US9663565B2, “Insulinotropic peptide derivative with modified N-terminal charge” (HANMI PHARM. CO., LTD., priority 2013, dated 2017).

Key:
[1] = tested on: GLP-1 receptor (hGLP-1R/GST); assay: Binding activity with the GLP-1 receptor by surface plasmon resonance (BIACORE 3000), 1:1 Langmuir fitting; design: species or system human; conditions: SPR, hGLP-1R/GST immobilized to CM5 chip
Text: The expressed hGLP-1R/GST was immobilized to a CM5 chip by amine coupling. […].

[2] = N-terminal charge at pH 7.4; assay type: physicochemical

Sequence of GLP-1 receptor (hGLP-1R/GST) (P43220 24-139 limits assumed): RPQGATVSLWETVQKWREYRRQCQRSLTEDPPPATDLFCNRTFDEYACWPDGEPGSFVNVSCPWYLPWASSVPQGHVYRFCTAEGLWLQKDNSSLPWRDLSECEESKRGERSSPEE

Substance: DA-exendin-4-propyl-amide
- Ka [1]: 1.04 ± 0.11 1/Ms, ×10^5
- Kd [1]: 32.6 ± 4.17 nM
- kd [1]: 33.5 ± 1.40 1/s, ×10^4
- N-terminal charge at pH 7.4 [2]: Neutral

Substance: imidazoacetyl-exendin-4 [CA-exendin-4]
- Ka [1]: 1.20 ± 0.11 1/Ms, ×10^5
- Kd [1]: 26.3 ± 2.08 nM
- kd [1]: 31.5 ± 0.56 1/s, ×10^4
- N-terminal charge at pH 7.4 [2]: Neutral

Substance: beta-hydroxy imidazopropionyl-exendin-4 [HY-exendin-4]
- Ka [1]: 0.90 ± 0.07 1/Ms, ×10^5
- Kd [1]: 42.7 ± 4.1 nM
- kd [1]: 38.3 ± 1.92 1/s, ×10^4
- N-terminal charge at pH 7.4 [2]: Neutral

Substance: desamino-histidyl-exendin-4 [DA-exendin-4]
- Ka [1]: 1.13 ± 0.08 1/Ms, ×10^5
- Kd [1]: 32.2 ± 1.89 nM
- kd [1]: 36.5 ± 1.40 1/s, ×10^4
- N-terminal charge at pH 7.4 [2]: Neutral
